Source: PubChem BioAssay AID256 (DTP/NCI, 2004)
Values joined by “and” are separate entries in the source; they are usually repeats but may differ in a detail not shown here. Equal values may be shown once. Inconclusive results and toxic doses are left out.

Test system: CD2F1 mice, L1210 leukemia ip, survival T/C
Test: NCI In Vivo Anticancer Drug Screen. Data for tumor model L1210 Leukemia (intraperitoneal) in CD2F1 (CDF1) mice
Details: higher = longer survival
Method in brief: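 In this screen, transplantable tumors were grown in mice given either the compound or its vehicle. Results were expressed as the treated measurement relative to the control measurement.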

[1] = endpoint: mean survival time, dose: 100.0 mg/kg/injection, schedule: Q01DX009 (ip), vehicle: saline
[2] = endpoint: mean survival time, dose: 100.0 mg/kg/injection, schedule: Q04DX003 (ip), vehicle: saline
[3] = endpoint: mean survival time, dose: 200.0 mg/kg/injection, schedule: Q01DX009 (ip), vehicle: saline
[4] = endpoint: mean survival time, dose: 200.0 mg/kg/injection, schedule: Q04DX003 (ip), vehicle: saline
[5] = endpoint: mean survival time, dose: 400.0 mg/kg/injection, schedule: Q01DX009 (ip), vehicle: saline
[6] = endpoint: mean survival time, dose: 400.0 mg/kg/injection, schedule: Q04DX003 (ip), vehicle: saline
[7] = endpoint: mean survival time, dose: 100.0 mg/kg/injection, schedule: Q01DX009 (ip), vehicle: saline with Tween-80
[8] = endpoint: mean survival time, dose: 200.0 mg/kg/injection, schedule: Q01DX009 (ip), vehicle: saline with Tween-80
[9] = endpoint: mean survival time, dose: 100.0 mg/kg/injection, schedule: Q01DX001 (ip), vehicle: saline with Tween-80
[10] = endpoint: mean survival time, dose: 200.0 mg/kg/injection, schedule: Q01DX001 (ip), vehicle: saline with Tween-80
[11] = endpoint: mean survival time, dose: 400.0 mg/kg/injection, schedule: Q01DX001 (ip), vehicle: saline with Tween-80
[12] = endpoint: mean survival time, dose: 100.0 mg/kg/injection, schedule: Q01DX001 (ip), vehicle: saline
[13] = endpoint: mean survival time, dose: 200.0 mg/kg/injection, schedule: Q01DX001 (ip), vehicle: saline
[14] = endpoint: mean survival time, dose: 400.0 mg/kg/injection, schedule: Q01DX001 (ip), vehicle: saline
[15] = endpoint: mean survival time, dose: 12.5 mg/kg/injection, schedule: Q01DX009 (ip), vehicle: saline with Tween-80
[16] = endpoint: mean survival time, dose: 25.0 mg/kg/injection, schedule: Q01DX009 (ip), vehicle: saline with Tween-80
[17] = endpoint: mean survival time, dose: 50.0 mg/kg/injection, schedule: Q01DX009 (ip), vehicle: saline with Tween-80
[18] = endpoint: mean survival time, dose: 400.0 mg/kg/injection, schedule: Q01DX009 (ip), vehicle: saline with Tween-80
[19] = endpoint: mean survival time, dose: 25.0 mg/kg/injection, schedule: Q04DX002 (ip), vehicle: saline with Tween-80
[20] = endpoint: mean survival time, dose: 50.0 mg/kg/injection, schedule: Q04DX002 (ip), vehicle: saline with Tween-80
[21] = endpoint: mean survival time, dose: 100.0 mg/kg/injection, schedule: Q04DX003 (ip), vehicle: saline with Tween-80

Compound: CC(N)C(=O)NC(CO)C(=O)O (stereo not given)
- T/C [1]: 103 % of control
- T/C [2]: 97 % of control
- T/C [3]: 95 % of control
- T/C [4]: 93 % of control
- T/C [5]: 97 % of control
- T/C [6]: 93 % of control

Compound: Cc1cn(C2CC(O)C(COP(N)(N)=O)O2)c(=O)[nH]c1=O (stereo not given)
- T/C (endpoint: mean survival time, dose: 12.5 mg/kg/injection, schedule: Q01DX005 (ip), vehicle: distilled water + Tween-80): 98 % of control
- T/C (endpoint: mean survival time, dose: 25.0 mg/kg/injection, schedule: Q01DX005 (ip), vehicle: distilled water + Tween-80): 98 % of control
- T/C (endpoint: mean survival time, dose: 50.0 mg/kg/injection, schedule: Q01DX005 (ip), vehicle: distilled water + Tween-80): 98 % of control
- T/C (endpoint: mean survival time, dose: 100.0 mg/kg/injection, schedule: Q01DX005 (ip), vehicle: distilled water + Tween-80): 96 % of control
- T/C (endpoint: mean survival time, dose: 200.0 mg/kg/injection, schedule: Q01DX005 (ip), vehicle: distilled water + Tween-80): 98 % of control

Compound: Nc1cc(Cl)c(N)c(N)n1
- T/C [7]: 100 % of control
- T/C [8]: 91 % of control

Compound: COc1ccc2nc3c4ccccc4scc-3c2c1
- T/C (endpoint: mean survival time, dose: 25.0 mg/kg/injection, schedule: Q01DX009 (ip), vehicle: Klucel (hydroxypropylcellulose) (HPC)): 109 % of control
- T/C (endpoint: mean survival time, dose: 50.0 mg/kg/injection, schedule: Q01DX009 (ip), vehicle: Klucel (hydroxypropylcellulose) (HPC)): 97 % of control
- T/C (endpoint: mean survival time, dose: 100.0 mg/kg/injection, schedule: Q01DX009 (ip), vehicle: Klucel (hydroxypropylcellulose) (HPC)): 110 % of control

Compound: O=c1[nH]c2cnn(-c3ccccc3)c2[nH]1
- T/C [9]: 97 % of control
- T/C [10]: 97 % of control
- T/C [11]: 93 % of control

Compound: Cc1cc(NC(=S)SCc2ccc3c(c2)OCO3)ccc1Cl
- T/C (endpoint: median survival time, dose: 12.5 mg/kg/injection, schedule: Q01DX009 (ip), vehicle: Klucel (hydroxypropylcellulose) (HPC)): 108 % of control
- T/C (endpoint: median survival time, dose: 25.0 mg/kg/injection, schedule: Q01DX009 (ip), vehicle: Klucel (hydroxypropylcellulose) (HPC)): 100 % of control and 106 % of control and 110 % of control
- T/C (endpoint: median survival time, dose: 50.0 mg/kg/injection, schedule: Q01DX009 (ip), vehicle: Klucel (hydroxypropylcellulose) (HPC)): 112 % of control and 113 % of control and 106 % of control
- T/C (endpoint: median survival time, dose: 100.0 mg/kg/injection, schedule: Q01DX009 (ip), vehicle: Klucel (hydroxypropylcellulose) (HPC)): 114 % of control
- T/C (endpoint: median survival time, dose: 200.0 mg/kg/injection, schedule: Q01DX009 (ip), vehicle: Klucel (hydroxypropylcellulose) (HPC)): 120 % of control

Compound: O=C(NNCN1C(=O)c2ccccc2C1=O)c1ccccc1
- T/C [12]: 98 % of control
- T/C [2]: 100 % of control
- T/C [13]: 104 % of control
- T/C [4]: 100 % of control
- T/C [14]: 100 % of control
- T/C [6]: 103 % of control

Compound: Cc1ccc(NNC(N)=O)cc1
- T/C (endpoint: mean survival time, dose: 25.0 mg/kg/injection, schedule: Q01DX001 (ip), vehicle: Klucel (hydroxypropylcellulose) (HPC)): 104 % of control
- T/C (endpoint: mean survival time, dose: 50.0 mg/kg/injection, schedule: Q01DX001 (ip), vehicle: Klucel (hydroxypropylcellulose) (HPC)): 93 % of control
- T/C (endpoint: mean survival time, dose: 100.0 mg/kg/injection, schedule: Q01DX001 (ip), vehicle: Klucel (hydroxypropylcellulose) (HPC)): 89 % of control

Compound: O=S(=O)(CCl)OCCCl
- T/C (endpoint: mean survival time, dose: 6.25 mg/kg/injection, schedule: Q01DX009 (ip), vehicle: saline with Tween-80): 101 % of control
- T/C [15]: 115 % of control and 117 % of control
- T/C [16]: 120 % of control
- T/C [17]: 193 % of control
- T/C [7]: 86 % of control
- T/C (endpoint: median survival time, dose: 6.25 mg/kg/injection, schedule: Q01DX009 (ip), vehicle: saline with Tween-80): 101 % of control and 108 % of control
- T/C (endpoint: median survival time, dose: 12.5 mg/kg/injection, schedule: Q01DX009 (ip), vehicle: saline with Tween-80): 100 % of control and 104 % of control
- T/C (endpoint: median survival time, dose: 50.0 mg/kg/injection, schedule: Q01DX009 (ip), vehicle: saline with Tween-80): 120 % of control
- T/C (endpoint: median survival time, dose: 100.0 mg/kg/injection, schedule: Q01DX009 (ip), vehicle: saline with Tween-80): 173 % of control

Compound: [N-]=[N+]=CC(=O)CCC(=O)C=[N+]=[N-]
- T/C (endpoint: mean survival time, dose: 12.5 mg/kg/injection, schedule: Q01DX009 (ip), vehicle: other): 106 % of control
- T/C (endpoint: mean survival time, dose: 25.0 mg/kg/injection, schedule: Q01DX009 (ip), vehicle: other): 90 % of control

Compound: O=C(C[P+](c1ccccc1)(c1ccccc1)c1ccccc1)C[P+](c1ccccc1)(c1ccccc1)c1ccccc1
- T/C [12]: 97 % of control
- T/C [13]: 95 % of control
- T/C [14]: 92 % of control

Compound: Cc1cc2c(C)c3cc(C)c(N)cc3nc2cc1N
- T/C (endpoint: mean survival time, dose: 75.0 mg/kg/injection, schedule: Q01DX001 (ip), vehicle: saline): 103 % of control

Compound: COc1ccc2c(C(=O)CCC(=O)O)cccc2c1
- T/C [1]: 94 % of control
- T/C [3]: 90 % of control
- T/C [5]: 100 % of control

Compound: COC(=O)NC(N)=Nc1ccccc1
- T/C [15]: 96 % of control
- T/C [16]: 87 % of control

Compound: NC1CCCCC1N.O=C([O-])c1ccc(N=Nc2cccc([N+](=O)[O-])c2)cc1O.O=C([O-])c1ccc(N=Nc2cccc([N+](=O)[O-])c2)cc1O.[Pt+4]
- T/C (endpoint: median survival time, dose: 3.12 mg/kg/injection, schedule: Q04DX003 (ip), vehicle: saline with Tween-80): 150 % of control and 301 % of control
- T/C (endpoint: median survival time, dose: 6.25 mg/kg/injection, schedule: Q04DX003 (ip), vehicle: saline with Tween-80): 190 % of control and 247 % of control
- T/C (endpoint: median survival time, dose: 12.5 mg/kg/injection, schedule: Q04DX003 (ip), vehicle: saline with Tween-80): 361 % of control and 375 % of control
- T/C (endpoint: median survival time, dose: 50.0 mg/kg/injection, schedule: Q04DX003 (ip), vehicle: saline with Tween-80): 89 % of control

Compound: O=C(Nc1ccccc1)c1ccc(S(=O)(=O)F)cc1
- T/C [7]: 101 % of control
- T/C [8]: 106 % of control
- T/C [18]: 106 % of control

Compound: O=c1c2cccc3cccc(c4n1NC=c1ccccc1=4)c32
- T/C [19]: 100 % of control
- T/C [20]: 92 % of control
- T/C (endpoint: mean survival time, dose: 100.0 mg/kg/injection, schedule: Q04DX002 (ip), vehicle: saline with Tween-80): 96 % of control
- T/C (endpoint: mean survival time, dose: 200.0 mg/kg/injection, schedule: Q04DX002 (ip), vehicle: saline with Tween-80): 96 % of control

Compound: Cc1cc(C)c(CN)cc1CN
- T/C (endpoint: mean survival time, dose: 25.0 mg/kg/injection, schedule: Q04DX003 (ip), vehicle: saline with Tween-80): 91 % of control
- T/C (endpoint: mean survival time, dose: 50.0 mg/kg/injection, schedule: Q04DX003 (ip), vehicle: saline with Tween-80): 88 % of control
- T/C [21]: 96 % of control

Compound: O=C1CCCN1c1ccc([N+](=O)[O-])cc1
- T/C (endpoint: mean survival time, dose: 12.5 mg/kg/injection, schedule: Q04DX002 (ip), vehicle: saline with Tween-80): 102 % of control
- T/C [19]: 102 % of control
- T/C [20]: 102 % of control
- T/C [9]: 110 % of control
- T/C [7]: 98 % of control
- T/C [10]: 104 % of control
- T/C [8]: 98 % of control
- T/C [11]: 101 % of control
- T/C [18]: 106 % of control

Compound: O=C1CCc2ccccc2C1C(=O)CC(O)(c1ccccc1)c1ccccc1 (stereo not given)
- T/C [21]: 100 % of control
- T/C (endpoint: mean survival time, dose: 200.0 mg/kg/injection, schedule: Q04DX003 (ip), vehicle: saline with Tween-80): 102 % of control

Compound: Cc1cc(C)c(CC=O)c(C)c1
- T/C (endpoint: median survival time, dose: 25.0 mg/kg/injection, schedule: Q04DX002 (ip), vehicle: saline with Tween-80): 100 % of control
- T/C (endpoint: median survival time, dose: 50.0 mg/kg/injection, schedule: Q04DX002 (ip), vehicle: saline with Tween-80): 100 % of control
- T/C (endpoint: median survival time, dose: 100.0 mg/kg/injection, schedule: Q04DX002 (ip), vehicle: saline with Tween-80): 100 % of control
- T/C (endpoint: median survival time, dose: 200.0 mg/kg/injection, schedule: Q04DX002 (ip), vehicle: saline with Tween-80): 100 % of control

Compound: O=C(Nc1cc(Cl)c(Cl)cc1Cl)C1CC1
- T/C [17]: 119 % of control
- T/C [7]: 101 % of control
- T/C [8]: 101 % of control

Compound: c1ccc2c(-c3nn[nH]n3)nccc2c1
- T/C [12]: 106 % of control
- T/C [13]: 113 % of control

Compound: C=C(Br)CNC(=O)CCC
- T/C (endpoint: mean survival time, dose: 2.5 mg/kg/injection, schedule: Q01DX009 (ip), vehicle: saline with Tween-80): 107 % of control
- T/C (endpoint: mean survival time, dose: 5.0 mg/kg/injection, schedule: Q01DX009 (ip), vehicle: saline with Tween-80): 106 % of control
- T/C (endpoint: mean survival time, dose: 10.0 mg/kg/injection, schedule: Q01DX009 (ip), vehicle: saline with Tween-80): 102 % of control
